Data taken from patent US5556942A, “Glutathione S-transferase-activated compounds” (priority 1994, dated 1996).

Key:
HT29 human cancer cells = details: preliminary results
[1] = target: recombinant human GST P1-1 (Homo sapiens, UniProt P09211); experiment: Decomposition of compound by GST P1-1 followed by HPLC; assay type: biochemical; details: for decomposition rate versus background, P1: 37°; for IN VITRO HALF LIVES, P1-1: 3 μM recombinant human GST P1-1, compound 300 μM, disappearance by HPLC
Method: (§1) The compound to be tested was dissolved in 0.2M phosphate buffer and a solution of GST was added. The final concentration was 0.3 mM test compound and 0.006 mM GST, pH 7.3 for TER 230; for TER 231 GST was 0,003 mM, pH 7.1. The solution was incubated at 37°. Decomposition was followed by HPLC. The column was J. T. Baker C18 250×4.6 mm with 5μ particles. The A buffer was 0.05M ammonium acetate, pH 5.5; 5% CH3 CN; B buffer was 70% CH3 CN in A.
(§2) The column was run with a gradient of 20%-50% B over 15 min. then to 100% B in 3 mins; then back to 20% B over 6 mins. A 10 μL sample was injected and the flow rate was 1 ml/min. Aliquots were removed and catalytic decomposition was quenched by addition of acetic acid. Overnight HPLC utilizing an autosampler were used; the rates of decomposition were calculated by measuring the rate of disappearance of the peak versus an internal standard which was 0.06 mM of an inert peptide marker.
(§3) In addition, half-lives were determined as described above using 3 μM recombinant human GST P1-1, A1-1 or M1a-1a starting with a concentration of the compound to be tested at 300 μM and monitoring disappearance using HPLC.

[2] = target: T1, recombinant human GST M1a-1a (Homo sapiens, UniProt P09488); experiment: Decomposition of compound by GST M1a-1a followed by HPLC; assay type: biochemical; details: for decomposition rate versus background, M1a: 37°; for IN VITRO HALF LIVES, M1a-1a: 3 μM recombinant human GST M1a-1a, compound 300 μM, disappearance by HPLC
T1 sequence (P09488 2-218 limits assumed): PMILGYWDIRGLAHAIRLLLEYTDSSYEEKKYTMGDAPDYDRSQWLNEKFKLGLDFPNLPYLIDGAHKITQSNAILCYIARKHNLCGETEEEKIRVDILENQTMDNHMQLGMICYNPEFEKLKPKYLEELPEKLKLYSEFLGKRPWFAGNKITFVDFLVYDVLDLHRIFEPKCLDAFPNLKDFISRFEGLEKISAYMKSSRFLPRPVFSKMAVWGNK
Method: as §1, §2, §3

[3] = target: T2, recombinant human GST A1-1 (Homo sapiens, UniProt P08263); experiment: Decomposition of compound by GST A1-1 followed by HPLC; assay type: biochemical; details: for decomposition rate versus background, A1: 37°; for IN VITRO HALF LIVES, A1-1: 3 μM recombinant human GST A1-1, compound 300 μM, disappearance by HPLC
T2 sequence (P08263 1-222): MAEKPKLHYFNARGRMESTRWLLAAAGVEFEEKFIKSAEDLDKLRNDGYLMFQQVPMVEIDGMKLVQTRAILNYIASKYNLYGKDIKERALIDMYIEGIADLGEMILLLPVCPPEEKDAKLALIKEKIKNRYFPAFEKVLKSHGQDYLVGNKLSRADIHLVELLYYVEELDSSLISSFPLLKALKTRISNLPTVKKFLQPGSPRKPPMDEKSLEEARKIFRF
Method: as §1, §2, §3

[4] = system: human GST P1-1, A1-1, M1a-1a; details: from in vitro half lives with 3 μM GST, 300 μM compound
Method: as §3

[5] = system: MCF-7 cells transfected with GST P1-1; details: for sensitization of cells with high P1-1 levels compared to control-vector cells: 2 hours treatment, assayed on day 5, FIGS. 4a-4c
[6] = no GST; compound 300 μM; disappearance by HPLC
Method: as §1, §2, §3

MX-1 tumor = details: single intraperitoneal injection, 300 mg/kg or 400 mg/kg, monitored one month; FIG. 5
Method: The prodrugs of the invention were tested in Balb/C nu/nv mice. The mice were implanted subcutaneously with MX-1 tumor pieces and then treated with a single intraperitoneal injection once tumors reached an average of 100 mm^3 (which is at approximately day 18 post-implant). Tumor growth and body weight were monitored for one month following treatment. […] In FIG. 5, the squares represent controls; circles represent 300 mg/kg of TER 286; triangles represent 400 mg/kg of the same drug. The points shown are the mean ±SEM of 5-7 mice per group.

[7] = system: GM-CFU in femoral bone marrow
Method: In the assay, B6D2F1 mice were treated with various doses of TER 286 intraperitoneally either as a single injection or as five daily injections. Femoral bone marrows were harvested 24 hours later and assayed for GM-CFU by the method of East, C. J. et al. Cancer Chemother Pharmacol (1992) 31:123-126.

[8] = system: MCF-7 cells selected for cyclophosphamide resistance (MCF-CTX); details: standard clonogenic assay
Description: Also tested were MCF-7 cells selected for cyclophosphamide resistance (MCF-CTX) and its wild-type counterpart.

[9] = 0.3 mM TER 230, 0.006 mM GST, pH 7.3, 0.2M phosphate buffer, FIG. 1
[10] = 0.3 mM TER 231, GST 0,003 mM, pH 7.1, 0.2M phosphate buffer, FIG. 2
[11] = TER 286 similarly tested, FIG. 3

Chain of recombinant human GST P1-1 (P09211 2-210 limits assumed): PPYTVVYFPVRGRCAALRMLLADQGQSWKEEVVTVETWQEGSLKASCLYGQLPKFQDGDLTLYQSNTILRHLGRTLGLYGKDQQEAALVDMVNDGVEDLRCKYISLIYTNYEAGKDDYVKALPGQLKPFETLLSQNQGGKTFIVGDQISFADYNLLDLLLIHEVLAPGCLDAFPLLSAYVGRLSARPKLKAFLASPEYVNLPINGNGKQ

Compound: CCN(CC)P(=O)(OCCS(=O)(=O)CC(NC(=O)CCC(N)C(=O)O)C(=O)NCC(=O)O)N(CC)CC (stereo not drawn) [TER 230, γ-glutamyl-α-aminopropionyl (β-(2-ethyl-N,N,N,N,tetraethylphosphoramidate)sulfonyl)-glycine]
- toxicity to HT29 cells (HT29 human cancer cells): is not
- decomposition rate versus background, P1 [1, 9]: about 2 times faster than background
- decomposition rate versus background, M1a [2, 9]: about 4 times faster than background
- decomposition rate versus background, A1 [3, 9]: does not accelerate the decomposition of TER 230 above background

Compound: NC(CCC(=O)NC(CS(=O)(=O)CCOP(=O)(N(CCCl)CCCl)N(CCCl)CCCl)C(=O)NCC(=O)O)C(=O)O (stereo not drawn) [TER 231, γ-Glutamyl-α-Aminopropionyl (β-(2-ethyl-N,N,N,N-tetra(2'-chloro)ethylphosphoroamidate)sulfonyl)gl ycine]
- toxicity to HT29 cells (HT29 human cancer cells): toxic to these cells
- Selectivity (GST isoenzyme that selectively cleaves the prodrug) [4]: by M1a-1a
- IN VITRO HALF LIVES, P1-1 [1]: 110 min
- decomposition rate versus background, P1 [1, 10]: 5 times faster than background
- IN VITRO HALF LIVES, M1a-1a [2]: 25 min
- decomposition rate versus background, M1a [2, 10]: about 12 times faster than background
- IN VITRO HALF LIVES, A1-1 [3]: 110 min
- decomposition rate versus background, A1 [3, 10]: 5 times faster than background
- sensitization of cells with high P1-1 levels compared to control-vector cells [5]: 2 fold
- sensitivity of π-transfected MCF-7 cells versus untransfected cells ([5]; π-transfect with elevated P1 GST): more sensitive
- IN VITRO HALF LIVES, CONTROL [6]: 350 min

Compound: NC(CCC(=O)NC(CS(=O)(=O)CCOP(=O)(N(CCCl)CCCl)N(CCCl)CCCl)C(=O)N[C@@H](C(=O)O)c1ccccc1)C(=O)O (stereo partly drawn) [TER 286, γ-glutamyl-α-Amino-β-((2-ethyl-N,N,N,N-tetra(2'-chloro) ethylphosphoroamidate)sulfonyl)propionyl-(R)-(-)phenylglycine]
- tumor volume in treated mice compared to controls (MX-1 tumor): greatly diminished
- GM-CFU, % of controls ([7]; mouse, in vivo): up to 180%
- optimum dosage range for bone marrow GM-CFU ([7]; mouse, in vivo): 100 to 200 mg/kg
- factor by which CTX-resistant cells are more sensitive than CTX-sensitive cells [8]: 1.8
- Selectivity (GST isoenzyme that selectively cleaves the prodrug) [4]: selectively cleaved by P1-1 and A1-1
- IN VITRO HALF LIVES, P1-1 [1]: 50 min
- acceleration of cleavage versus background, P1-1 [1, 11]: roughly six
- IN VITRO HALF LIVES, M1a-1a [2]: 225 min
- acceleration of cleavage versus background, M1a-1a [2, 11]: negligible acceleration of cleavage
- IN VITRO HALF LIVES, A1-1 [3]: 65 min
- acceleration of cleavage versus background, A1-1 [3, 11]: roughly six
- sensitization of cells with high P1-1 levels compared to control-vector cells [5]: 4 fold
- IN VITRO HALF LIVES, CONTROL [6]: 275 min

Compound: N[C@@H](Cc1ccc(N(CCCl)CCCl)cc1)C(=O)O [melphalan, reference compound]
- toxicity with respect to bone marrow (GM-CFU) ([7]; FIG. 7): extreme toxicity

Compound: γ-glutamyl-α-Amino-β-(1-phenyl, (2'ethyl-N,N,N,N-tetra(2'-chloro)ethylphosphoroamidate)sulfonyl) propionyl glycine [TER 296]
- Selectivity (GST isoenzyme that selectively cleaves the prodrug) [4]: selectively cleaved by P1-1
- IN VITRO HALF LIVES, P1-1 [1]: 2.5 min
- IN VITRO HALF LIVES, M1a-1a [2]: 50 min
- IN VITRO HALF LIVES, A1-1 [3]: 200 min

Compound: γ-glutamyl-α-Amino-β-((2-ethyl-N,N,N,N-tetra(2'-chloro)eth ylphosphoroamidate)sulfonyl)propionylphenylalanine [TER 303]
- Selectivity (GST isoenzyme that selectively cleaves the prodrug) [4]: selectively cleaved by A1-1
- IN VITRO HALF LIVES, P1-1 [1]: 310 min
- IN VITRO HALF LIVES, M1a-1a [2]: 200 min
- IN VITRO HALF LIVES, A1-1 [3]: 45 min
